Results as given in publication doi:10.1101/2020.07.01.182642v1 (biorxiv, 2020).
Blank lines part the entries; values can stand above or below the compound they belong to.

How the values were obtained:
Settings in all cases: binder
OXSR1 = OXSR1 (Homo sapiens, UniProt O95747)
BMPR2 = BMPR2 (Homo sapiens, UniProt Q13873)
PIM1 = PIM1 (Homo sapiens, UniProt P11309)
CLK4 = CLK4 (Homo sapiens, UniProt Q9HAZ1)
CSNK1G2 = CSNK1G2 (Homo sapiens, UniProt P78368)
DYRK1A = DYRK1A (Homo sapiens, UniProt Q13627)
PRKX = PRKX (Homo sapiens, UniProt P51817)
Sequence of PRKX (P51817 whole entry): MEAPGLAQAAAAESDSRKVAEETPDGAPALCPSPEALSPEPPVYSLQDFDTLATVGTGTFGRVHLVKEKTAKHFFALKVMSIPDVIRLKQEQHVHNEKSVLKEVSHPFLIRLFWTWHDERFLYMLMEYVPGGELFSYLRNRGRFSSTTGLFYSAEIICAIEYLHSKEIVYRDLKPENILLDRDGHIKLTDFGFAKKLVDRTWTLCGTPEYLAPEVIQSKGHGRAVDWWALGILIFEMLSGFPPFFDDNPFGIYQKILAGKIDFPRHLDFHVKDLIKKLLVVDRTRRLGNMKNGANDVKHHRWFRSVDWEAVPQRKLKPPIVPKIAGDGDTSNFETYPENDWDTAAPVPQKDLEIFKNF

STK40 = STK40 (Homo sapiens, UniProt Q8N2I9)
LATS1 = LATS1 (Homo sapiens, UniProt O95835)
RIPK3 = RIPK3 (Homo sapiens, UniProt Q9Y572)
Sequence of RIPK3 (Q9Y572 whole entry): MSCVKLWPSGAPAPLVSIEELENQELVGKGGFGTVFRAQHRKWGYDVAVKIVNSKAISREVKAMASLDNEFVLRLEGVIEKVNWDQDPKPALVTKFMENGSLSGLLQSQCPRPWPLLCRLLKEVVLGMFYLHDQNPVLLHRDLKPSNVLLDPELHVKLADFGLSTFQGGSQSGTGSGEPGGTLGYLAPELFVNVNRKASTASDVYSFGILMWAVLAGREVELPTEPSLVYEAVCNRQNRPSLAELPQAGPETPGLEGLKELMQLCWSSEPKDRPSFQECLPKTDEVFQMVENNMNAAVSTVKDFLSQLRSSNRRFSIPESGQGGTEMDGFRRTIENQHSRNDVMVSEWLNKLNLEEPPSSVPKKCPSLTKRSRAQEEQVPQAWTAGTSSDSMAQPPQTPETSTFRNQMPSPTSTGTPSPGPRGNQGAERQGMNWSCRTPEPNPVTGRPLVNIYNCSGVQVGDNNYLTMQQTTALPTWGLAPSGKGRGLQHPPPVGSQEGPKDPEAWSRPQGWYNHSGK

NEK11 = NEK11 (Homo sapiens, UniProt Q8NG66)
TEC = TEC (Homo sapiens, UniProt P42680)
CAMK4 = CAMK4 (Homo sapiens, UniProt Q16566)
PAK2 = PAK2 (Homo sapiens, UniProt Q13177)
ABL2 = ABL2 (Homo sapiens, UniProt P42684)
Sequence of ABL2 (P42684 whole entry): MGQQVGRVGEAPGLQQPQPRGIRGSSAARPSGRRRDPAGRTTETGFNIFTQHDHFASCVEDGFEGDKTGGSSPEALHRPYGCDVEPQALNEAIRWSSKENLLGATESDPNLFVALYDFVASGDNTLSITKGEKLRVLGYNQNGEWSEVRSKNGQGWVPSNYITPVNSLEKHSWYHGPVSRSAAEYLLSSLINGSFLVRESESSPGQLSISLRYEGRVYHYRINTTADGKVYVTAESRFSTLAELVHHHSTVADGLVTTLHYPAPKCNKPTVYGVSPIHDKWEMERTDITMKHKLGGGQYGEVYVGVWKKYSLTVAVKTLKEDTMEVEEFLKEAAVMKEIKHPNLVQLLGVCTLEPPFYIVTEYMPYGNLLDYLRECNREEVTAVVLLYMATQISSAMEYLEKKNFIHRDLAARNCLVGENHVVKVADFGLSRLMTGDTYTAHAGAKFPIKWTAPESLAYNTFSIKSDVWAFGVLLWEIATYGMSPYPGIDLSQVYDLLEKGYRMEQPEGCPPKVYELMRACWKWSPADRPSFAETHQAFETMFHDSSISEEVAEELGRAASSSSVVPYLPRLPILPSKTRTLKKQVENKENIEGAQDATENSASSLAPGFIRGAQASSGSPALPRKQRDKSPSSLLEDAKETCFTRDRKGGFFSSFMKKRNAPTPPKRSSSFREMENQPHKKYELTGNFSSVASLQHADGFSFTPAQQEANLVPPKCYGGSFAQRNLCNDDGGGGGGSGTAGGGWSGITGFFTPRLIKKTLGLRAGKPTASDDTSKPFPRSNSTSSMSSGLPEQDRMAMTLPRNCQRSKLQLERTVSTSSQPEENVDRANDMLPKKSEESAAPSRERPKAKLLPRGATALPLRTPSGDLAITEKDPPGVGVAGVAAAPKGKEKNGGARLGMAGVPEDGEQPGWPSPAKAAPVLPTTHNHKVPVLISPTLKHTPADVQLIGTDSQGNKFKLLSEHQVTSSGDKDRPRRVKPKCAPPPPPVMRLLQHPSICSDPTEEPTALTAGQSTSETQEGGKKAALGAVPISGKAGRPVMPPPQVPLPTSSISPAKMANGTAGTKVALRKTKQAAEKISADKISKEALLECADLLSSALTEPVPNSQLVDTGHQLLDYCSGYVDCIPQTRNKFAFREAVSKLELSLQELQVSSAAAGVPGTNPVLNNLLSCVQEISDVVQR

SGK3 = SGK3 (Homo sapiens, UniProt Q96BR1)
NEK9 = NEK9 (Homo sapiens, UniProt Q8TD19)
VRK3 = VRK3 (Homo sapiens, UniProt Q8IV63)
TYK2 = TYK2 (Homo sapiens, UniProt P29597)
SRPK1 = SRPK1 (Homo sapiens, UniProt Q96SB4)
Sequence of SRPK1 (Q96SB4 whole entry): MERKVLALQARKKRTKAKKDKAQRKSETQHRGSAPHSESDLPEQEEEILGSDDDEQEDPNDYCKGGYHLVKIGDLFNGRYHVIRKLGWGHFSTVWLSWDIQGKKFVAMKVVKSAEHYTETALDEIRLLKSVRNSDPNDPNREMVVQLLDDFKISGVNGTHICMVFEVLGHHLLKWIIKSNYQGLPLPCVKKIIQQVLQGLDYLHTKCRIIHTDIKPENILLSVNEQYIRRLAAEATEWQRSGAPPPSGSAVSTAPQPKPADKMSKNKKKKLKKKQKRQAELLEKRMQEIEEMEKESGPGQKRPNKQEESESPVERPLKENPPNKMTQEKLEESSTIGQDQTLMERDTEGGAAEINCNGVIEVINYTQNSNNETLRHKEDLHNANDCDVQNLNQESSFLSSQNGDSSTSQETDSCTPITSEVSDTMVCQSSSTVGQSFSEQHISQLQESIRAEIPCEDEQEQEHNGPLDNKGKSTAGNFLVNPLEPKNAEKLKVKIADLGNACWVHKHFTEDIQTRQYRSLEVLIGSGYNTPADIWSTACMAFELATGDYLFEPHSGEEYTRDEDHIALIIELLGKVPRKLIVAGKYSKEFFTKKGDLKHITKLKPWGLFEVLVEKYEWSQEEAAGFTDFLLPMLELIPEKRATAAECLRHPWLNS

CAMK2D = CAMK2D (Homo sapiens, UniProt Q13557)
DDR1 = DDR1 (Homo sapiens, UniProt Q08345)
CAMKK1 = CAMKK1 (Homo sapiens, UniProt Q8N5S9)
Sequence of CAMKK1 (Q8N5S9 whole entry): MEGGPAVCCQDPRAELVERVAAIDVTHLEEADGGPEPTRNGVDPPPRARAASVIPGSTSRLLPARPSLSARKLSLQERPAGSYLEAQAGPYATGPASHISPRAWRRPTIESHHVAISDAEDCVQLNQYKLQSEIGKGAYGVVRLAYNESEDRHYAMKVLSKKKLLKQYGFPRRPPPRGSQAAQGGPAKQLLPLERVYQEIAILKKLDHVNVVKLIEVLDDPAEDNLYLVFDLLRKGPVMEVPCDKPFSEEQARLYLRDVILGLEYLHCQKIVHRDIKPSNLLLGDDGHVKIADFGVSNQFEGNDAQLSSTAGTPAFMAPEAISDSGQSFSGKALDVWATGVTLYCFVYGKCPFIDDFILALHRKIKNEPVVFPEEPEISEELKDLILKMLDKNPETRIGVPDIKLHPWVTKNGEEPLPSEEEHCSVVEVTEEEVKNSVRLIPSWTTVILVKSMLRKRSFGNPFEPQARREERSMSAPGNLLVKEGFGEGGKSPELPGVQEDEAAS

PBK = PBK (Homo sapiens, UniProt Q96KB5)
Sequence of PBK (Q96KB5 whole entry): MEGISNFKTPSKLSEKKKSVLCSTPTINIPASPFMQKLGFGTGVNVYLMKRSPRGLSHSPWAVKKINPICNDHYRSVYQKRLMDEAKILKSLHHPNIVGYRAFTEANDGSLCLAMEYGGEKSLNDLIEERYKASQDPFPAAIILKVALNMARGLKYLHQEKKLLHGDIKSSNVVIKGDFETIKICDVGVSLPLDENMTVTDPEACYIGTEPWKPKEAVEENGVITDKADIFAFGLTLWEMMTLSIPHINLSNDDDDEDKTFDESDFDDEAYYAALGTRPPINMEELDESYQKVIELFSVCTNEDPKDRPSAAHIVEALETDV

FGR = FGR (Homo sapiens, UniProt P09769)
Sequence of FGR (P09769 whole entry): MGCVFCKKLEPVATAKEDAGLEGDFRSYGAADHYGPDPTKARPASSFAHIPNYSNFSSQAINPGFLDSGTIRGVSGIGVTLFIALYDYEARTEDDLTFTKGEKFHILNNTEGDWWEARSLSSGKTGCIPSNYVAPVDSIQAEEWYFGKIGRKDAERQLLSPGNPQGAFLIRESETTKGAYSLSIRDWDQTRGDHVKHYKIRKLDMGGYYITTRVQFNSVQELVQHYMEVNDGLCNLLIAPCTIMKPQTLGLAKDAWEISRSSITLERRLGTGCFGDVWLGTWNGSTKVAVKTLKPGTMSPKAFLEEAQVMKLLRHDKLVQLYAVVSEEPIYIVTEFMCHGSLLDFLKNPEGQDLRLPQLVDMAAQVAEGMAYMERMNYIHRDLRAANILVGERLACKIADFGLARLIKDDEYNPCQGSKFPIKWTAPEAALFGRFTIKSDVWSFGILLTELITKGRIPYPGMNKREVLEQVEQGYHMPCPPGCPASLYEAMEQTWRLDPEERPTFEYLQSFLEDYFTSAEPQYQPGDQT

SIK1 = SIK1 (Homo sapiens, UniProt P57059)
STK32B = STK32B (Homo sapiens, UniProt Q9NY57)
SgK223 = SgK223 (Homo sapiens, UniProt Q86YV5)
IGF1R = IGF1R (Homo sapiens, UniProt P08069)
ERN2 = ERN2 (Homo sapiens, UniProt Q76MJ5)
Sequence of ERN2 (Q76MJ5 whole entry): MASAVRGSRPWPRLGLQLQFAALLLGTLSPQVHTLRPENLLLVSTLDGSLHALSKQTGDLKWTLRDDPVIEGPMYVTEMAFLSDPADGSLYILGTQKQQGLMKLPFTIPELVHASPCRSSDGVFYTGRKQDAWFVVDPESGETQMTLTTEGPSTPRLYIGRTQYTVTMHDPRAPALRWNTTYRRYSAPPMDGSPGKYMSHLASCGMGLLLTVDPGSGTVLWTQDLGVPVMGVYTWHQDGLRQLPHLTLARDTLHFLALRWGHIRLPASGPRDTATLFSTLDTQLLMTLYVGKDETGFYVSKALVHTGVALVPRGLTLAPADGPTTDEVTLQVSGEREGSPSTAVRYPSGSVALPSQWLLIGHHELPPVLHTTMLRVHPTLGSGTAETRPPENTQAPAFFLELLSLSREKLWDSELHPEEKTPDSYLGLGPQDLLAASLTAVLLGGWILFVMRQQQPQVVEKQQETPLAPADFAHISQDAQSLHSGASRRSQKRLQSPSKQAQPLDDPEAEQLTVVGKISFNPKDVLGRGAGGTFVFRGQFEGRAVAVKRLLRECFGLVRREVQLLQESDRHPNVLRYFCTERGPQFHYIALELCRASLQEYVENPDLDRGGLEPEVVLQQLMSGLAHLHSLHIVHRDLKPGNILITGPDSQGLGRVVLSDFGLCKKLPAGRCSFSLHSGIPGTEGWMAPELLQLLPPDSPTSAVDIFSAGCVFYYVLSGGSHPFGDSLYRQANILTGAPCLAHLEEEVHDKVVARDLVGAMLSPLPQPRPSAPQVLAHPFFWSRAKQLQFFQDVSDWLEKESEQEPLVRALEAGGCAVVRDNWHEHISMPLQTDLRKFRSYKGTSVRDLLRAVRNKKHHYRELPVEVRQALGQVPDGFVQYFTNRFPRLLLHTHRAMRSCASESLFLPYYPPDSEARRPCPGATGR

MYO3A = MYO3A (Homo sapiens, UniProt Q8NEV4)

ΔTm inhibitor 1 (OXSR1): 0.5 °C
ΔTm inhibitor 1 (BMPR2): 7.8 °C
ΔTm inhibitor 1 (PIM1): 6.3 °C
ΔTm inhibitor 1 (CLK4): 8.5 °C
ΔTm inhibitor 1 (CSNK1G2): 2.5 °C
ΔTm inhibitor 1 (DYRK1A): 3.6 °C
Compound: CC(=O)c1cccc(-c2cnc3ccc(NCC4CC4)nn23)c1 [compound 1, K00135]

ΔTm inhibitor 2 (PRKX): -0.2 °C
ΔTm inhibitor 2 (STK40): 0.0 °C
ΔTm inhibitor 2 (LATS1): 0.1 °C
ΔTm inhibitor 2 (RIPK3): -0.6 °C
ΔTm inhibitor 2 (NEK11): 0.6 °C
ΔTm inhibitor 2 (TEC): 1.0 °C
ΔTm inhibitor 2 (CAMK4): -0.2 °C
ΔTm inhibitor 2 (PAK2): -0.6 °C
ΔTm inhibitor 2 (ABL2): -0.5 °C
ΔTm inhibitor 2 (SGK3): -0.1 °C
ΔTm inhibitor 2 (VRK3): 0.5 °C
ΔTm inhibitor 2 (TYK2): 0.6 °C
ΔTm inhibitor 2 (SRPK1): 0.0 °C
ΔTm inhibitor 2 (CAMK2D): -0.6 °C
ΔTm inhibitor 2 (DDR1): 0.4 °C
ΔTm inhibitor 2 (CAMKK1): 0.0 °C
ΔTm inhibitor 2 (PBK): 0.5 °C
ΔTm inhibitor 2 (FGR): -0.2 °C
ΔTm inhibitor 2 (SIK1): 1.5 °C
ΔTm inhibitor 2 (STK32B): -0.2 °C
Compound: CCN1/C(=C/C(C)=O)Sc2ccc(OC)cc21 [compound 2, TG003]
ΔTm inhibitor 2 (NEK9): 0.5 °C

ΔTm inhibitor 4 (SgK223): 0.4 °C
ΔTm inhibitor 4 (IGF1R): 0.2 °C
ΔTm inhibitor 4 (ERN2): 0.4 °C
ΔTm inhibitor 4 (MYO3A): 0.2 °C
Compound: Nc1nccc(-c2ccc3noc(-c4ccc(Cl)cc4)c3c2)n1 [compound 4, K00972]
